Molecules are shown by their SMILES.

For this test, the target named is L-lactate dehydrogenase A chain (Homo sapiens, UniProt P00338). Briefly: Inhibition of human recombinant carboxy-terminal His-tagged LDHA by UV endpoint assay.
A word on the IC50: it is the concentration that inhibits the measured activity by half. Regarding `N#Cc1ccccc1SC1=C(O)CC(c2c(Cl)cccc2Cl)CC1=O` (centres undefined), the IC50 is above 100 µM. On to `N#Cc1ccccc1SC1=C(O)CC(c2c(Cl)cccc2Br)CC1=O` (centres undefined), for which the half-inhibitory concentration (IC50) was above 100 µM. As to `O=C1CC(c2ccccc2Cl)CC(O)=C1Sc1ccccc1Cl` (centres undefined), the IC50 is above 100 µM. In the case of `O=C1CC(c2cccc(Cl)c2)CC(O)=C1Sc1ccccc1Cl` (centres undefined) it was above 100 µM; in that of `O=C1CC(c2ccc(Cl)cc2)CC(O)=C1Sc1ccccc1Cl` (centres undefined), above 100 µM; in that of `COc1ccc(C2CC(=O)C(Sc3ccccc3Cl)=C(O)C2)cc1` (centres undefined), above 100 µM. As for `O=C1CC(c2c(F)cccc2Cl)CC(O)=C1Sc1ccccc1Cl` (centres undefined), the half-inhibitory concentration (IC50) is above 100 µM.

On to `O=C1CC(c2c(Cl)cccc2Br)CC(O)=C1Sc1ccccc1Cl` (centres undefined), for which the IC50 is above 100 µM.

On to `O=C1CC(c2c(Cl)cccc2C(F)(F)F)CC(O)=C1Sc1ccccc1Cl` (centres undefined), for which the IC50 was above 100 µM.

Regarding `O=C1CC(c2c(F)cccc2F)CC(O)=C1Sc1ccccc1Cl` (centres undefined), the concentration for half-maximal inhibition (IC50) was above 100 µM. For `Cc1cc(C)c(SC2=C(O)CC(c3ccccc3)CC2=O)nc1C#N` (centres undefined) the value was 5.6 µM; for `O=C1CC(c2ccccc2)CC(O)=C1Sc1ncc[nH]1` (centres undefined), 0.87 µM; for `CSc1nnc(SC2=C(O)CC(c3ccccc3)CC2=O)s1` (centres undefined), 7.4 µM.

For the compound `Cc1ccc2nc(SC3=C(O)CC(c4ccccc4)CC3=O)[nH]c2c1` (centres undefined), the half-maximal inhibitory concentration (IC50) is 2.1 µM. In the case of `O=C1CC(c2c(Cl)ccc(Br)c2Cl)CC(O)=C1Sc1ccccc1Cl` (centres undefined) it was above 100 µM. For `O=C1CC(c2c(Br)cccc2Br)CC(O)=C1Sc1ccccc1Cl` (centres undefined) the value was above 100 µM; for `Cc1cccc(C)c1C1CC(=O)C(Sc2ccccc2Cl)=C(O)C1` (centres undefined), above 100 µM; for `O=C1CC(c2c(C(F)(F)F)cccc2C(F)(F)F)CC(O)=C1Sc1ccccc1Cl` (centres undefined), above 100 µM. For `N#Cc1ccccc1SC1=C(O)CC(c2ccccc2Cl)CC1=O` (centres undefined) the value was above 100 µM.

Consider `N#Cc1ccccc1SC1=C(O)CC(c2cccc(Cl)c2)CC1=O` (centres undefined), for which the IC50 is above 100 µM. In the case of `N#Cc1ccccc1SC1=C(O)CC(c2ccc(Cl)cc2)CC1=O` (centres undefined) it was above 100 µM. In the case of `N#Cc1ccccc1SC1=C(O)CC(c2c(Cl)cccc2C(F)(F)F)CC1=O` (centres undefined), the IC50 is above 100 µM.

Consider `Cc1cccc(C)c1C1CC(=O)C(Sc2ccccc2C#N)=C(O)C1` (centres undefined), for which the IC50 was above 100 µM. In the case of `N#Cc1ccccc1SC1=C(O)CC(c2c(Br)cccc2Br)CC1=O` (centres undefined) it was above 100 µM.

The values above are taken from BindingDB's records for doi:10.1016/j.bmcl.2014.06.076 (Genentech, 2014).
